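96-well plates; 48 h exposure; 5 concentrations. Endpoints by linear interpolation between flanking doses. Not reached: highest tested concentration assigned. Abbreviation: GI50, concentration required for 50% inhibition of growth.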 Calls of active or inactive are those of the source. Cut-off read from the data, not from the text of the source: active = GI50 up to about 1.1 µM and inactive = higher.
Experiments:
Experiment in all cases: NCI anticancer screen, dose series, 48 h
[1] = tested on: 786-0
[2] = tested on: A498
[3] = tested on: A549
[4] = tested on: ACHN
[5] = tested on: BT-549
[6] = tested on: CAKI-1
[7] = tested on: CCRF-CEM
[8] = tested on: COLO 205
[9] = tested on: DU-145
[10] = tested on: EKVX
[11] = tested on: HCC 2998
[12] = tested on: HCT-116
[13] = tested on: HCT-15
[14] = tested on: HL-60
[15] = tested on: HOP-62
[16] = tested on: HOP-92
[17] = tested on: HT-29
[18] = tested on: Hs-578T
[19] = tested on: IGROV-1
[20] = tested on: K562
[21] = tested on: KM12
[22] = tested on: M14
[23] = tested on: MCF7
[24] = tested on: MDA-MB-231
[25] = tested on: MDA-MB-435
[26] = tested on: MOLT-4
[27] = tested on: NCI-H226
[28] = tested on: NCI-H23
[29] = tested on: NCI-H460
[30] = tested on: NCI-H522
[31] = tested on: NCI/ADR-RES
[32] = tested on: OVCAR-3
[33] = tested on: OVCAR-4
[34] = tested on: OVCAR-5
[35] = tested on: OVCAR-8
[36] = tested on: PC-3
[37] = tested on: RPMI-8226
[38] = tested on: RXF 393
[39] = tested on: SF-268
[40] = tested on: SF-295
[41] = tested on: SF-539
[42] = tested on: SK-MEL-28
[43] = tested on: SK-MEL-2
[44] = tested on: SK-MEL-5
[45] = tested on: SK-OV-3
[46] = tested on: SN12C
[47] = tested on: SNB-19
[48] = tested on: SNB-75
[49] = tested on: SW-620
[50] = tested on: T47D
[51] = tested on: TK-10
[52] = tested on: U-251
[53] = tested on: UACC-257
[54] = tested on: UACC-62
[55] = tested on: UO-31
[56] = tested on: LOX IMVI
[57] = tested on: Malme-3M
[58] = tested on: SR

In the case of `CSc1nc(O)c(C#N)c(-c2ccc(Cl)cc2)n1`, the GI50 [1] is reported as > 100 µM (inactive), the GI50 [2] is reported as 74.6 µM (inactive) and the GI50 [3] is reported as > 100 µM (inactive). The GI50 [4] was > 100 µM (inactive), the GI50 [5] was > 100 µM (inactive) and the GI50 [6] was > 100 µM (inactive). For the same compound, the GI50 [7] was 61 µM (inactive), the GI50 [8] was > 100 µM (inactive) and the GI50 [9] was > 100 µM (inactive). For the same compound, the GI50 [10] was > 100 µM (inactive), the GI50 [11] was > 100 µM (inactive) and the GI50 [12] was 72.1 µM (inactive). For the same compound, the GI50 [13] was > 100 µM, the GI50 [14] was 35.5 µM (inactive) and the GI50 [15] was > 100 µM (inactive). For the same compound, the GI50 [16] was 24.8 µM (inactive), the GI50 [17] was > 100 µM (inactive) and the GI50 [18] was 64.9 µM (inactive). The GI50 [19] was > 100 µM (inactive), the GI50 [20] was > 100 µM (inactive) and the GI50 [21] was > 100 µM (inactive). The GI50 [22] was > 100 µM (inactive), the GI50 [23] was > 100 µM (inactive) and the GI50 [24] was > 100 µM (inactive). The GI50 [25] was > 100 µM (inactive), the GI50 [26] was > 100 µM (inactive) and the GI50 [27] was > 100 µM (inactive). The GI50 [28] was > 100 µM (inactive), the GI50 [29] was > 100 µM (inactive) and the GI50 [30] was 51.8 µM (inactive). For the same compound, the GI50 [31] was > 100 µM (inactive), the GI50 [32] was > 100 µM (inactive) and the GI50 [33] was > 100 µM (inactive). For the same compound, the GI50 [34] was > 100 µM (inactive), the GI50 [35] was > 100 µM (inactive) and the GI50 [36] was 91.4 µM (inactive). For the same compound, the GI50 [37] was 80.4 µM (inactive), the GI50 [38] was 66.7 µM (inactive) and the GI50 [39] was > 100 µM (inactive). For the same compound, the GI50 [40] was > 100 µM (inactive), the GI50 [41] was > 100 µM (inactive) and the GI50 [42] was > 100 µM (inactive). The GI50 [43] was > 100 µM (inactive), the GI50 [44] was > 100 µM (inactive) and the GI50 [45] was > 100 µM (inactive). The GI50 [46] was > 100 µM (inactive), the GI50 [47] was 77.4 µM (inactive) and the GI50 [48] was 93.8 µM (inactive). For the same compound, the GI50 [49] was > 100 µM (inactive), the GI50 [50] was 43.7 µM (inactive) and the GI50 [51] was > 100 µM (inactive). The GI50 [52] was 97.9 µM (inactive), the GI50 [53] was > 100 µM (inactive) and the GI50 [54] was 73.6 µM (inactive). The GI50 [55] was 36.5 µM (inactive).
For `O=C1/C(=C/C=C/c2ccccc2)CCC1CNc1ccc(Br)cc1` (stereo not drawn), the GI50 [1] was 82.2 µM (inactive), the GI50 [2] was 68.9 µM (inactive) and the GI50 [3] was 53 µM (inactive). For the same compound, the GI50 [4] was 6.53 µM (inactive), the GI50 [5] was > 100 µM (inactive) and the GI50 [6] was > 100 µM (inactive). The GI50 [7] was 22.7 µM (inactive), the GI50 [8] was 20.8 µM (inactive) and the GI50 [9] was 40.2 µM (inactive). For the same compound, the GI50 [10] was > 100 µM (inactive), the GI50 [11] was 78 µM (inactive) and the GI50 [12] was 37.9 µM (inactive). The GI50 [13] was 4.86 µM, the GI50 [14] was 17.1 µM (inactive) and the GI50 [15] was > 100 µM (inactive). The GI50 [16] was > 100 µM (inactive), the GI50 [17] was > 100 µM (inactive) and the GI50 [18] was > 100 µM (inactive). For the same compound, the GI50 [19] was 46.8 µM (inactive), the GI50 [20] was 27.1 µM (inactive) and the GI50 [21] was 15.2 µM (inactive). The GI50 [56] was > 100 µM (inactive), the GI50 [22] was 77.6 µM (inactive) and the GI50 [23] was 21 µM (inactive). The GI50 [24] was 23.1 µM (inactive), the GI50 [25] was 44.5 µM (inactive) and the GI50 [26] was 24.3 µM (inactive). The GI50 [57] was 0.106 µM (active), the GI50 [27] was > 100 µM (inactive) and the GI50 [28] was > 100 µM (inactive). The GI50 [29] was 72.1 µM (inactive), the GI50 [30] was 21.3 µM (inactive) and the GI50 [31] was > 10 µM (inactive). The GI50 [32] was > 100 µM (inactive), the GI50 [33] was 57.7 µM (inactive) and the GI50 [34] was > 100 µM (inactive). The GI50 [35] was > 100 µM (inactive), the GI50 [36] was 79.3 µM (inactive) and the GI50 [37] was 5.47 µM (inactive). For the same compound, the GI50 [38] was > 100 µM (inactive), the GI50 [39] was > 100 µM (inactive) and the GI50 [40] was > 100 µM (inactive). The GI50 [41] was > 100 µM (inactive), the GI50 [42] was > 100 µM (inactive) and the GI50 [44] was 47.5 µM (inactive). For the same compound, the GI50 [45] was 88.1 µM (inactive), the GI50 [46] was 4.51 µM (inactive) and the GI50 [47] was > 100 µM (inactive). The GI50 [58] was 23.3 µM (inactive), the GI50 [49] was 88.7 µM (inactive) and the GI50 [50] was 34.1 µM (inactive). For the same compound, the GI50 [51] was 43.3 µM (inactive), the GI50 [52] was > 100 µM (inactive) and the GI50 [53] was > 100 µM (inactive). For the same compound, the GI50 [54] was 6.92 µM (inactive) and the GI50 [55] was 48.4 µM (inactive).
In the case of `Cc1nc(=O)n2c(c1C(=O)Nc1ccc(Cl)cc1)NCC2`, the GI50 [2] is reported as > 72.8 µM (inactive) and the GI50 [16] is reported as > 79.4 µM (inactive).
